The values that follow come from PubChem BioAssay AID330 (DTP/NCI, 2004).

The structures appear in SMILES notation. Where “and” joins values, the source holds several entries; their conditions need not be identical. Equal values may be shown once. Inconclusive results and toxic doses are left out.

In this experiment the test system is P388 leukemia ip, CD2F1 mice, survival T/C. The experiment in a line: NCI In Vivo Anticancer Drug Screen. Data for tumor model P388 Leukemia (intraperitoneal) in CD2F1 (CDF1) mice. To be noted: endpoint: median survival time, higher = longer survival. The procedure, abridged: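 Mice carrying the transplanted tumor received test compound or vehicle. Survival was recorded in each group, and the value is the treated-group measurement divided by that of the vehicle-treated control group.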

Where [1] appears, read: dose: 50.0 mg/kg/injection, schedule: Q01DX009 (ip), vehicle: saline with Tween-80.
Where [2] appears, read: dose: 100.0 mg/kg/injection, schedule: Q01DX009 (ip), vehicle: saline with Tween-80.
Setting [3] is: dose: 200.0 mg/kg/injection, schedule: Q01DX009 (ip), vehicle: saline with Tween-80.
Where [4] appears, read: dose: 60.0 mg/kg/injection, schedule: Q01DX005 (ip), vehicle: saline with Tween-80.
The mark [5] stands for this setting: dose: 120.0 mg/kg/injection, schedule: Q01DX005 (ip), vehicle: saline with Tween-80.
Where [6] appears, read: dose: 240.0 mg/kg/injection, schedule: Q01DX005 (ip), vehicle: saline with Tween-80.
The mark [7] stands for this setting: dose: 50.0 mg/kg/injection, schedule: Q01DX005 (ip), vehicle: saline with Tween-80.
Setting [8] is: dose: 100.0 mg/kg/injection, schedule: Q01DX005 (ip), vehicle: saline with Tween-80.
Where [9] appears, read: dose: 200.0 mg/kg/injection, schedule: Q01DX005 (ip), vehicle: saline with Tween-80.
[10] abbreviates: dose: 50.0 mg/kg/injection, schedule: Q01DX005 (ip), vehicle: Klucel (hydroxypropylcellulose) (HPC).
The mark [11] stands for this setting: dose: 100.0 mg/kg/injection, schedule: Q01DX005 (ip), vehicle: Klucel (hydroxypropylcellulose) (HPC).
[12] abbreviates: dose: 200.0 mg/kg/injection, schedule: Q01DX005 (ip), vehicle: Klucel (hydroxypropylcellulose) (HPC).

For the compound `COC(=O)CC1C2(C)CC34OC5(C)OC6(C7CC(=O)OC(c8ccoc8)C7(C)CCC6(O5)C13C)C(OC(=O)C(C)C)C4(O)C2OC(=O)C(C)C` (centres undefined), the T/C by setting is: (dose: 0.37 mg/kg/injection, schedule: Q01DX009 (ip), vehicle: Klucel (hydroxypropylcellulose) (HPC)) 109 % of control; (dose: 0.75 mg/kg/injection, schedule: Q01DX009 (ip), vehicle: Klucel (hydroxypropylcellulose) (HPC)) 109 % of control; (dose: 1.5 mg/kg/injection, schedule: Q01DX009 (ip), vehicle: Klucel (hydroxypropylcellulose) (HPC)) 102 % of control; (dose: 3.0 mg/kg/injection, schedule: Q01DX009 (ip), vehicle: Klucel (hydroxypropylcellulose) (HPC)) 101 % of control.

In the case of `O=S(=O)(O)CCNC(=S)C(=S)NCCS(=O)(=O)O`, the T/C is 100 % of control (dose: 50.0 mg/kg/injection, schedule: Q01DX009 (ip), vehicle: saline); 100 % of control (dose: 100.0 mg/kg/injection, schedule: Q01DX009 (ip), vehicle: saline); 101 % of control (dose: 200.0 mg/kg/injection, schedule: Q01DX009 (ip), vehicle: saline).

In the case of `CS(=O)(=O)c1cc(=O)[nH]c(=O)[nH]1`, the T/C reads like this: (dose: 25.0 mg/kg/injection, schedule: Q01DX009 (ip), vehicle: saline with Tween-80) 90 % of control; under setting [1], 95 % of control; under setting [2], 100 % of control; under setting [3], 95 % of control.

In the case of `NCC1CCCCO1` (centres undefined), the T/C is, setting by setting: (dose: 50.0 mg/kg/injection, schedule: Q01DX005 (ip), vehicle: saline) 98 % of control; (dose: 100.0 mg/kg/injection, schedule: Q01DX005 (ip), vehicle: saline) 99 % of control; (dose: 200.0 mg/kg/injection, schedule: Q01DX005 (ip), vehicle: saline) 91 % of control.

For `CC(=O)CC(C)=NCC(C)N=C(C)CC(C)=O.c1cc[c]([Sn][c]2ccccc2)cc1` (centres undefined), the T/C runs as follows: (dose: 2.5 mg/kg/injection, schedule: Q01DX009 (ip), vehicle: saline) 154 % of control; (dose: 5.0 mg/kg/injection, schedule: Q01DX009 (ip), vehicle: saline) 158 % of control and 162 % of control; (dose: 10.0 mg/kg/injection, schedule: Q01DX009 (ip), vehicle: saline) 185 % of control.

Turning to `O=C(O)c1cc(OCc2ccccc2)cc(OCc2ccccc2)c1`, the T/C is, setting by setting: under setting [4], 96 % of control; under setting [5], 102 % of control; under setting [6], 106 % of control.

As to `C#Cc1cccc(N=Cc2cc(Cl)cc(Cl)c2O)c1`, the T/C is, setting by setting: under setting [7], 102 % of control; under setting [8], 102 % of control; under setting [9], 108 % of control.

`COc1ccc2nc(Cl)c(Br)c(C)c2c1`: the T/C under setting [4] is 95 % of control, the T/C under setting [5] was 92 % of control and the T/C under setting [6] is 90 % of control.

Turning to `SCC(CS)=C(CS)CS`, the T/C is, setting by setting: under setting [4], 112 % of control; under setting [5], 113 % of control; under setting [6], 106 % of control.

As for `O=C(O)c1nn(-c2ccccc2)c2c1CSc1ccccc1-2`, the T/C was 109 % of control (dose: 100.0 mg/kg/injection, schedule: Q01DX001 (ip), vehicle: saline with Tween-80) and 104 % of control (dose: 200.0 mg/kg/injection, schedule: Q01DX001 (ip), vehicle: saline with Tween-80).

`Nc1ccc(NCCC2CCCN3CCCCC23)c2c(=O)c3ccccc3sc12` (centres undefined): the T/C is, setting by setting: (dose: 32.5 mg/kg/injection, schedule: Q01DX005 (ip), vehicle: saline with Tween-80) 100 % of control; (dose: 65.0 mg/kg/injection, schedule: Q01DX005 (ip), vehicle: saline with Tween-80) 100 % of control; (dose: 80.0 mg/kg/injection, schedule: Q01DX005 (ip), vehicle: saline with Tween-80) 95 % of control; (dose: 130.0 mg/kg/injection, schedule: Q01DX005 (ip), vehicle: saline with Tween-80) 101 % of control; (dose: 160.0 mg/kg/injection, schedule: Q01DX005 (ip), vehicle: saline with Tween-80) 104 % of control; (dose: 260.0 mg/kg/injection, schedule: Q01DX005 (ip), vehicle: saline with Tween-80) 109 % of control.

Consider `COC(=O)C1C2C1C1C=CC2n2c(=O)n(-c3ccccc3)c(=O)n21` (centres undefined), for which the T/C by setting is: under setting [10], 97 % of control; under setting [11], 97 % of control; under setting [12], 110 % of control.

Regarding `NC(=O)c1[nH]nc(C2OC(CO)C(O)C2O)c1O` (centres undefined), the T/C runs as follows: (dose: 0.31 mg/kg/injection, schedule: Q01DX009 (ip), vehicle: saline) 109 % of control; (dose: 0.62 mg/kg/injection, schedule: Q01DX009 (ip), vehicle: saline) 122 % of control; (dose: 0.67 mg/kg/injection, schedule: Q01DX009 (ip), vehicle: saline) 124 % of control; (dose: 1.0 mg/kg/injection, schedule: Q04DX003 (ip), vehicle: saline) 108 % of control; (dose: 2.0 mg/kg/injection, schedule: Q04DX003 (ip), vehicle: saline) 113 % of control; (dose: 3.0 mg/kg/injection, schedule: Q01DX009 (ip), vehicle: saline) 107 % of control. In addition, the T/C is 113 % of control (dose: 3.0 mg/kg/injection, schedule: Q04DX003 (ip), vehicle: saline); 120 % of control (dose: 4.0 mg/kg/injection, schedule: Q04DX003 (ip), vehicle: saline); 115 % of control (dose: 4.4 mg/kg/injection, schedule: Q04DX003 (ip), vehicle: saline); 115 % of control (dose: 6.7 mg/kg/injection, schedule: Q04DX003 (ip), vehicle: saline); 111 % of control (dose: 8.0 mg/kg/injection, schedule: Q04DX003 (ip), vehicle: saline); 123 % of control (dose: 9.0 mg/kg/injection, schedule: Q04DX003 (ip), vehicle: saline). Further, the T/C is, setting by setting: (dose: 10.0 mg/kg/injection, schedule: Q04DX003 (ip), vehicle: saline sonified) 116 % of control; (dose: 10.0 mg/kg/injection, schedule: Q04DX003 (ip), vehicle: saline) 106 % of control; (dose: 16.0 mg/kg/injection, schedule: Q04DX003 (ip), vehicle: saline) 111 % of control; (dose: 27.0 mg/kg/injection, schedule: Q04DX003 (ip), vehicle: saline) 117 % of control; (dose: 32.0 mg/kg/injection, schedule: Q04DX003 (ip), vehicle: saline) 104 % of control.

On to `CCOc1cccc(Cc2c[nH]c(=O)[nH]c2=O)c1`, for which the T/C is 94 % of control under setting [4], 92 % of control under setting [5] and 90 % of control under setting [6].

On to `Cc1cnc(C)n2c(C)nnc12`, for which the T/C (dose: 100.0 mg/kg/injection, schedule: Q04DX003 (ip), vehicle: saline) was 99 % of control and the T/C (dose: 200.0 mg/kg/injection, schedule: Q04DX003 (ip), vehicle: saline) is 96 % of control.

Take `O=C1C(Cl)=C(Nc2ccc(C#Cc3ccccc3)cc2)C(=O)C(Cl)=C1Nc1ccc(C#Cc2ccccc2)cc1`: the T/C by setting is: under setting [1], 91 % of control; under setting [2], 91 % of control; under setting [3], 87 % of control.

With `[CH3][Sn]([CH3])([O]C(=O)CNC(=O)c1ccccc1)[O]C(=O)CNC(=O)c1ccccc1`, the T/C reads like this: (dose: 0.79 mg/kg/injection, schedule: Q01DX001 (ip), vehicle: Klucel (hydroxypropylcellulose) (HPC)) 97 % of control; (dose: 1.56 mg/kg/injection, schedule: Q01DX001 (ip), vehicle: Klucel (hydroxypropylcellulose) (HPC)) 93 % of control; (dose: 3.12 mg/kg/injection, schedule: Q01DX001 (ip), vehicle: Klucel (hydroxypropylcellulose) (HPC)) 100 % of control.

Consider `COc1cc(CNc2cccc(F)c2)cc(OC)c1OC`, for which the T/C is 100 % of control under setting [10], 110 % of control under setting [11] and 89 % of control under setting [12].

For `Cc1cc(=O)oc2c1cc(OCC(=O)OCCN1CCCCC1)c1occ(C)c12`, the T/C was 99 % of control under setting [7], 92 % of control under setting [8] and 93 % of control under setting [9].
